# Source: patent publication US20250195487A1, “FORMULATIONS OF A CSF-1R INHIBITOR” (Deciphera Pharmaceuticals, LLC, priority 2023, published 2025)
# Where a name gives a salt, the structure may show the parent alone.
# Key:
# [1] = Solubility determination in deionized water; type: physicochemical; conditions: ultrasonic treatment; for Solubility S: about 2 mg sample
# [2] = Hygroscopic behavior test by dynamic vapor sorption (DVS); type: physicochemical; conditions: for hygroscopic property, in words: dependence on relative humidity; for hygroscopic weight gain: 25° C., DVS
# From the text: The experimental method for characterizing the acid salt of the crystalline compound of the formula (I) by using dynamic vapor sorption (DVS) comprises the steps of putting a small amount of powder of the acid salt of the crystalline compound of the formula (I) in a precision sample tray in coordination with the instrument, and then sending to the instrument for testing after loading the samples. The model of all the instruments used in the dynamic vapor sorption in the present invention is DVS Intrinsic, the experimental parameters are set to that nitrogen is used as the carrier gas, the constant temperature is set to 25° C., the mass percent change rate per unit time (dm/dt) is equal to 0.01%/min as the determination criteria to achieve balance, the program humidity change cycle is set to that the initial relative humidity is 0%, the relative humidity at the end point is 90%, cycle is set to twice, and every 10% R.H. changes a step.
# The inventors of the present invention measured the hygroscopic weight gain results (hygroscopic weight gain/pre-hygroscopic weight*100%) of various crystalline forms at each relative humidity by using the dynamic vapor sorption method, the hygroscopicity of different crystalline compounds was evaluated, and the results obtained were as follows: […]
SMILES,Dissolution Phenomenon [1],Solubility S [1],"hygroscopic property, in words [2]",hygroscopic weight gain ([2]; relative humidity 0.0 %),hygroscopic weight gain ([2]; relative humidity 10.0 %),hygroscopic weight gain ([2]; relative humidity 20.0 %),hygroscopic weight gain ([2]; relative humidity 30.0 %),hygroscopic weight gain ([2]; relative humidity 40.0 %),hygroscopic weight gain ([2]; relative humidity 50.0 %),hygroscopic weight gain ([2]; relative humidity 60.0 %),hygroscopic weight gain ([2]; relative humidity 70.0 %),hygroscopic weight gain ([2]; relative humidity 80.0 %),hygroscopic weight gain ([2]; relative humidity 90.0 %),hygroscopic weight gain of the crystal ([2]; relative humidity less than 80%)
Cc1nc(NC(=O)N2CCC(C)(C)C2=O)ccc1Oc1ccnc(-c2cnn(C)c2)c1 [Fumarate crystalline form I],Settled solution,S > 20 mg/mL,–,–,–,–,–,–,–,–,–,–,–,–
Cc1nc(NC(=O)N2CCC(C)(C)C2=O)ccc1Oc1ccnc(-c2cnn(C)c2)c1 [Malate crystalline form I],Settled solution,S > 20 mg/mL,–,–,–,–,–,–,–,–,–,–,–,–
Cc1nc(NC(=O)N2CCC(C)(C)C2=O)ccc1Oc1ccnc(-c2cnn(C)c2)c1 [Sulfate crystalline form I],Settled solution,S > 20 mg/mL,–,–,–,–,–,–,–,–,–,–,–,–
Cc1nc(NC(=O)N2CCC(C)(C)C2=O)ccc1Oc1ccnc(-c2cnn(C)c2)c1 [Free compound],Non-settling,S < 1.5 mg/mL,–,–,–,–,–,–,–,–,–,–,–,–
Cc1nc(NC(=O)N2CCC(C)(C)C2=O)ccc1Oc1ccnc(-c2cnn(C)c2)c1 [Citrate crystalline form I],Settled solution,S > 20 mg/mL,–,–,–,–,–,–,–,–,–,–,–,–
Cc1nc(NC(=O)N2CCC(C)(C)C2=O)ccc1Oc1ccnc(-c2cnn(C)c2)c1 [Mesylate crystalline form II],Settled solution,S > 20 mg/mL,significantly increased when the relative humidity is increased to 70%,0.00%,0.11%,0.18%,0.20%,0.24%,0.31%,0.88%,8.93%,12.44%,23.15%,–
Cc1nc(NC(=O)N2CCC(C)(C)C2=O)ccc1Oc1ccnc(-c2cnn(C)c2)c1 [Phosphate crystalline form I],Settled solution,S > 20 mg/mL,remains less hygroscopicity regardless of the ambient relative humidity,0.02%,1.19%,1.86%,2.32%,2.78%,3.37%,3.97%,4.66%,5.46%,6.383%,–
Cc1nc(NC(=O)N2CCC(C)(C)C2=O)ccc1Oc1ccnc(-c2cnn(C)c2)c1 [Hydrochloride crystalline form I],Settled solution,S > 20 mg/mL,"when the relative humidity was increased to 90%, the hygroscopicity of the crystal was increased significantly",0.00%,0.13%,0.24%,0.34%,0.42%,0.52%,0.63%,0.81%,1.37%,19.40%,less than 1%
Cc1nc(NC(=O)N2CCC(C)(C)C2=O)ccc1Oc1ccnc(-c2cnn(C)c2)c1 [Tartrate crystalline form I],Settled solution,S > 20 mg/mL,a good linear relationship is formed,0.00%,0.83%,1.79%,2.42%,2.88%,3.32%,3.77%,4.44%,5.17%,10.61%,–
